Data as given in patent publication US20190225650A1, “PEPTIDOMIMETIC MACROCYCLES AND USE THEREOF IN REGULATING HIF1ALPHA” (AILERON THERAPEUTICS, INC., priority 2013, published 2019).
Bridge positions count the residues as written; N and C are the ends. Square brackets hold non-standard residues; d marks the D form. Peptide text beside a SMILES is read from it. Cba = N[C@@H](CC1CCC1)C(=O)O; S5 = C=CCCC[C@](C)(N)C(=O)O; Nle = CCCC[C@H](N)C(=O)O

Legend:
HRE-bla ME-180 cells [1] = experiment: Cell proliferation assay (viability, MTT, 1% FBS); type: cell-based, human
Procedure: The human cervical cell line HRE-Bla ME-180 was obtained from Invitrogen. 2×10^4 ME-180 cells were plated in 96-well plates (costar) in Opti-MEM plus 1% FBS (Invitrogen). After 4 hr, cells were pretreated with chetomin, peptide or 0.5% DMSO (final concentration in media) vehicle control for 16 hr under normoxia (21% O2); then incubation continued under normoxia or hypoxia (1% O2) using a hypoxia incubator (Thermo Forma model). Viable cell numbers were quantified using CellTiter 96 Non-Radioactive Cell Proliferation kit (Promega, G4100). The results are presented in the column “Viability 1% FBS AVG (MTT V3-24 hr Normoxia) (μM)” of Table 6.

HRE-bla ME-180 cells [2] = experiment: Reporter gene assay (HRE-bla ME-180 HIF reporter, GeneBLAzer); type: cell-based, human; details: for EC50: 24 hour normoxia
Outline: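 A FRET β-lactamase readout of HIF transcription was used. After compound treatment in 0.3% DMSO/media under normoxic conditions, 20 μl of 6× LiveBLAzer-FRET B/G (CCF4-AM) substrate was added. Plates sat 3 hr at room temperature in the dark and were read at 409 Ex/460Em and 409Ex/530Em on a Synergy 2. Inhibition was compared against DMSO vehicle controls, with chetomin as positive control.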

[3] = molecular target: T1, flag-tagged HIF1α (AA 786-826) / His6-tagged p300 (AA 323-423) complex (Homo sapiens, UniProt Q09472); experiment: HIF1α p300 displacement assay (TR FRET, +CHAPS); type: binding; details: read-out: IC50 (nM) (HIF1α_p300 Displacement + CHAPS)
T1 construct: His6-tagged p300 (AA 323-423); made in house; host or cells: E. coli (pETDuet vector)
Outline: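 The co-expressed flag-HIF1α (786-826)/His6-p300 (323-423) complex, purified from E. coli with 0.1 mM ZnSO4, was used at 300 nM final with competitor peptides for 1 h at room temperature. Buffer was 150 mM NaCl, 20 mM HEPES pH 7.4, 7.5 mM CHAPS and 1 mM DTT. Anti-Flag-K (0.5 μM) and anti-His-D2 (4 nM) were then added for 2 h, and IC50s were fitted from the TR-FRET ratio.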

| SMILES | EC50 (HRE-bla ME-180 cells [2]) | IC50 [3] | Viability 1% FBS AVG (MTT V3-24 hr Normoxia) (μM) (HRE-bla ME-180 cells [1]) | 18 h Avg % max inhibition at top conc (HIF Rptr-24 hrs normoxia) (μM) (HRE-bla ME-180 cells [2]) |
| --- | --- | --- | --- | --- |
| CCCC[C@H](NC(=O)[C@H](CC(C)C)NC(=O)[C@@H](NC(=O)[C@H](CCC(=O)O)NC(=O)[C@H](CCC(=O)O)NC(=O)[C@H](CC(=O)O)NC(=O)[C@@H](NC(=O)[C@H](Cc1ccccc1)NC(C)=O)[C@@H](C)CC)C(C)C)C(=O)N[C@@]1(C)CCCC=CCCC[C@@](C)(C(=O)N[C@@H](CCCC)C(=O)N[C@@H](C)C(=O)N[C@@H](CC(C)C)C(N)=O)NC(=O)[C@H]([C@@H](C)CC)NC(=O)[C@H](C(C)C)NC(=O)[C@H](CC(C)C)NC1=O [SP-8] (Ac-FIDEEVL[Nle][S5]LVI[S5][Nle]AL-NH2; staple 9-13) |  |  | ++++ (≥30: ++++) |  |
| CCCC[C@H](NC(=O)[C@H](C)NC(=O)[C@@H](NC(=O)[C@@H](NC(=O)[C@H](CC(C)C)NC(=O)[C@]1(C)CCCC=CCCC[C@](C)(NC(=O)[C@H](CCC(=O)O)NC(=O)[C@H](CC(=O)O)NC(=O)[C@@H](NC(=O)[C@H](Cc2ccccc2)NC(C)=O)[C@@H](C)CC)C(=O)N[C@@H](C(C)C)C(=O)N[C@@H](CC(C)C)C(=O)N[C@@H](CCCC)C(=O)N1)C(C)C)[C@@H](C)CC)C(=O)N[C@@H](C)C(=O)N[C@@H](CC(C)C)C(=O)N[C@@H](CO)C(=O)N[C@@H](CO)C(=O)N[C@H](C(N)=O)[C@@H](C)CC [SP-129] (Ac-FIDE[S5]VL[Nle][S5]LVIA[Nle]ALSSI-NH2; staple 5-9) | > 30 µM |  | ++++ (≥30: ++++) | ++ (≤10 but <25: ++) |
| CCCC[C@@H]1NC(=O)[C@H](CC(C)C)NC(=O)[C@H]([C@@H](C)O)NC(=O)[C@@](C)(NC(=O)[C@H](C)NC(=O)[C@H](CC(=O)O)NC(=O)[C@@H](NC(=O)[C@H](Cc2ccccc2)NC(C)=O)[C@@H](C)CC)CCCC=CCCCC2(CCCC=CCCC[C@](C)(C(=O)N[C@@H](CCCC)C(=O)N[C@@H](C)C(=O)N[C@@H](CC(C)C)C(N)=O)NC(=O)[C@H]([C@@H](C)CC)NC(=O)[C@H](C(C)C)NC(=O)[C@H](CO)NC2=O)NC1=O (stereo partly shown) [SP-214] | > 30 µM | > 700 nM |  | +++ (≤25 but <50: +++) |
| CC[C@H](C)[C@H](NC(=O)[C@H](Cc1ccccc1)NC(C)=O)C(=O)N[C@@H](CC(=O)O)C(=O)N[C@@H](CCC(N)=O)C(=O)N[C@@H](CCC(=O)O)C(=O)N[C@H](C(=O)N[C@@H](CC(C)C)C(=O)N[C@@H](CCSC)C(=O)N[C@@]1(C)CCCC=CCCC[C@@](C)(C(=O)N[C@@H](CCSC)C(=O)N[C@@H](C)C(=O)N[C@@H](CC(C)C)C(N)=O)NC(=O)[C@H]([C@@H](C)CC)NC(=O)[C@H](C(C)C)NC(=O)[C@H](CC(C)C)NC1=O)C(C)C [SP-233] (Ac-FIDQEVLM[S5]LVI[S5]MAL-NH2; staple 9-13) | 15 to 30 µM | 400 to 700 nM |  | +++ (≤25 but <50: +++) |

Second part, led by results:

| EC50 (HRE-bla ME-180 cells [2]) | IC50 [3] | SMILES | Viability 1% FBS AVG (MTT V3-24 hr Normoxia) (μM) (HRE-bla ME-180 cells [1]) | 18 h Avg % max inhibition at top conc (HIF Rptr-24 hrs normoxia) (μM) (HRE-bla ME-180 cells [2]) |
| --- | --- | --- | --- | --- |
| > 30 µM |  | CCCC[C@H](NC(=O)[C@H](CCC(=O)O)NC(=O)[C@@H](NC(=O)[C@@H](NC(=O)[C@H](CC(C)C)NC(=O)[C@]1(C)CCCC=CCCC[C@](C)(NC(=O)[C@H](CCC(=O)O)NC(=O)[C@H](CC(=O)O)NC(=O)[C@@H](NC(=O)[C@H](Cc2ccccc2)NC(C)=O)[C@@H](C)CC)C(=O)N[C@@H](C(C)C)C(=O)N[C@@H](CC(C)C)C(=O)N[C@@H](CCSC)C(=O)N1)C(C)C)[C@@H](C)CC)C(=O)N[C@@H](C)C(=O)N[C@@H](CC(C)C)C(=O)N[C@@H](CC(=O)O)C(=O)N[C@@H](CCCNC(=N)N)C(=O)N[C@H](C(N)=O)[C@@H](C)CC [SP-119] (Ac-FIDE[S5]VLM[S5]LVIE[Nle]ALDRI-NH2; staple 5-9) | ++++ (≥30: ++++) | +++ (≤25 but <50: +++) |
| > 30 µM | 400 to 700 nM | CCCC[C@H](NC(=O)[C@H](CC(C)C)NC(=O)[C@@H](NC(=O)[C@H](CCC(=O)O)NC(=O)[C@H](CCC(=O)O)NC(=O)[C@H](CC(=O)O)NC(=O)[C@@H](NC(=O)[C@H](Cc1ccccc1)NC(C)=O)[C@@H](C)CC)C(C)C)C(=O)N[C@@]1(C)CCCC=CCCC[C@@](C)(C(=O)N[C@@H](CCCC)C(=O)N[C@@H](C)C(=O)N[C@@H](CC(C)C)C(N)=O)NC(=O)[C@H]([C@@H](C)CC)NC(=O)[C@H](C(C)C)NC(=O)[C@H](Cc2ccccc2)NC1=O [SP-219] (Ac-FIDEEVL[Nle][S5]FVI[S5][Nle]AL-NH2; staple 9-13) |  | ++ (≤10 but <25: ++) |
| > 30 µM | > 700 nM | CC[C@H](C)[C@H](NC(=O)[C@H](Cc1ccccc1)NC(C)=O)C(=O)N[C@H](C(=O)N[C@@H](CCC(=O)O)C(=O)N[C@@H](CCC(=O)O)C(=O)N[C@H](C(=O)N[C@@H](CC(C)C)C(=O)N[C@@H](CCSC)C(=O)N[C@@]1(C)CCCC=CCCC[C@@](C)(C(=O)N[C@@H](CCSC)C(=O)N[C@@H](C)C(=O)N[C@@H](CC(C)C)C(N)=O)NC(=O)[C@H]([C@@H](C)CC)NC(=O)[C@H](C(C)C)NC(=O)[C@H](CC(C)C)NC1=O)C(C)C)[C@@H](C)O [SP-231] (Ac-FITEEVLM[S5]LVI[S5]MAL-NH2; staple 9-13) |  | + (<10: +) |
| > 30 µM | 400 to 700 nM | CC[C@H](C)[C@H](NC(=O)[C@H](Cc1ccccc1)NC(C)=O)C(=O)N[C@@H](CC(N)=O)C(=O)N[C@@H](CCC(=O)O)C(=O)N[C@@H](CCC(=O)O)C(=O)N[C@H](C(=O)N[C@@H](CC(C)C)C(=O)N[C@@H](CCSC)C(=O)N[C@@]1(C)CCCC=CCCC[C@@](C)(C(=O)N[C@@H](CCSC)C(=O)N[C@@H](C)C(=O)N[C@@H](CC(C)C)C(N)=O)NC(=O)[C@H]([C@@H](C)CC)NC(=O)[C@H](C(C)C)NC(=O)[C@H](CC(C)C)NC1=O)C(C)C [SP-232] (Ac-FINEEVLM[S5]LVI[S5]MAL-NH2; staple 9-13) |  | ++ (≤10 but <25: ++) |
| > 30 µM | > 700 nM | CC[C@H](C)[C@H](NC(=O)[C@H](Cc1ccccc1)NC(C)=O)C(=O)N[C@@H](CC(=O)O)C(=O)N[C@@H](CCC(=O)O)C(=O)N[C@@H](CCC(=O)O)C(=O)N[C@H](C(=O)N[C@@H](CC(C)C)C(=O)N[C@@H](CCSC)C(=O)N[C@@]1(C)CCCC=CCCC[C@@](C)(C(=O)N[C@@H](CCSC)C(=O)N[C@@H](C)C(=O)N[C@@H](CC2CCC2)C(N)=O)NC(=O)[C@H]([C@@H](C)CC)NC(=O)[C@H](C(C)C)NC(=O)[C@H](CC(C)C)NC1=O)C(C)C [SP-237] (Ac-FIDEEVLM[S5]LVI[S5]MA[Cba]-NH2; staple 9-13) |  | +++ (≤25 but <50: +++) |
| > 30 µM | 400 to 700 nM | CC[C@H](C)[C@H](NC(=O)[C@H](Cc1ccccc1)NC(C)=O)C(=O)N[C@@H](CC(=O)O)C(=O)N[C@@H](CCC(=O)O)C(=O)N[C@@H](CO)C(=O)N[C@H](C(=O)N[C@@H](CC(C)C)C(=O)N[C@@H](CCSC)C(=O)N[C@@]1(C)CCCC=CCCC[C@@](C)(C(=O)N[C@@H](CCSC)C(=O)N[C@@H](C)C(=O)N[C@@H](CC(C)C)C(N)=O)NC(=O)[C@H]([C@@H](C)CC)NC(=O)[C@H](C(C)C)NC(=O)[C@H](CC(C)C)NC1=O)C(C)C [SP-238] (Ac-FIDESVLM[S5]LVI[S5]MAL-NH2; staple 9-13) |  | ++ (≤10 but <25: ++) |
